Earlier results as cited in patent US20180161299A1, “ESSENTIAL NUTRIENTS AND RELATED METHODS” (Balchem Corporation, priority 2016, published 2018).

Legend:
[1] = pregnant women, choline intake increased from 480 mg to 930 mg

Compound	choline excreted in the urine [1]	increase in the amount of B12 analogues present in the GI tract and in the circulation (large oral and systemic doses of B12)	vitamin B12 absorbed by diffusion from the gastrointestinal tract (large oral doses (500 μg to 5000 μg))	vitamin B12 absorbed (typical oral vitamin B12 supplementations)
C[N+](C)(C)CCO [choline, N,N,N-trimethylethanolammonium cation]	little, if any	–	–	–
cobalamin [Vitamin B12]	–	more than 10 fold	less than 1%	less than 1%
